Reference: PubChem BioAssay (NCI)
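Where inhibition never reached the appropriate level, the endpoint shown equals the highest concentration tested. Otherwise, values were interpolated linearly from a five-concentration, 48-hour dose response in 96-well plates. GI50 marks 50% less growth. TGI: concentration producing complete growth inhibition.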

Experiments:
Assay in all cases: inhibition of tumour cell growth, NCI panel, 48 h
LOX IMVI melanoma = test system: LOX IMVI melanoma
U251 CNS = test system: U251 CNS
NCI-H460 lung = test system: NCI-H460 lung
KM12 colon = test system: KM12 colon
MALME-3M melanoma = test system: MALME-3M melanoma
OVCAR-5 ovarian = test system: OVCAR-5 ovarian
NCI-H23 lung = test system: NCI-H23 lung
DU-145 prostate = test system: DU-145 prostate
SNB-19 CNS = test system: SNB-19 CNS
SF-295 CNS = test system: SF-295 CNS
HOP-92 NSCLC = test system: HOP-92 NSCLC
SW-620 colon = test system: SW-620 colon
OVCAR-8 ovarian = test system: OVCAR-8 ovarian
SF-539 CNS = test system: SF-539 CNS
EKVX NSCLC = test system: EKVX NSCLC
OVCAR-3 ovarian = test system: OVCAR-3 ovarian
MOLT-4 leukemia = test system: MOLT-4 leukemia
CCRF-CEM leukemia = test system: CCRF-CEM leukemia
HL-60(TB) leukemia = test system: HL-60(TB) leukemia
M14 melanoma = test system: M14 melanoma
HCT-15 colon = test system: HCT-15 colon
SN12C renal = test system: SN12C renal
UACC-257 melanoma = test system: UACC-257 melanoma
SK-MEL-2 melanoma = test system: SK-MEL-2 melanoma
SK-MEL-28 melanoma = test system: SK-MEL-28 melanoma
HCT-116 colon = test system: HCT-116 colon
HT29 colon = test system: HT29 colon
BT-549 breast = test system: BT-549 breast
UO-31 renal = test system: UO-31 renal
MDA-MB-231 breast = test system: MDA-MB-231 breast
SK-MEL-5 melanoma = test system: SK-MEL-5 melanoma
A549 NSCLC = test system: A549 NSCLC
NCI-H226 lung = test system: NCI-H226 lung
SNB-75 CNS = test system: SNB-75 CNS
SR leukemia = test system: SR leukemia
IGROV1 ovarian = test system: IGROV1 ovarian
TK-10 renal = test system: TK-10 renal
CAKI-1 renal = test system: CAKI-1 renal
MCF7 breast = test system: MCF7 breast
RPMI-8226 leukemia = test system: RPMI-8226 leukemia
MDA-MB-435 = test system: MDA-MB-435
RXF 393 renal = test system: RXF 393 renal
HOP-62 NSCLC = test system: HOP-62 NSCLC
A498 renal = test system: A498 renal
786-0 renal = test system: 786-0 renal
UACC-62 melanoma = test system: UACC-62 melanoma
HCC-2998 colon = test system: HCC-2998 colon
K-562 leukemia = test system: K-562 leukemia
OVCAR-4 ovarian = test system: OVCAR-4 ovarian
COLO 205 colon = test system: COLO 205 colon
SK-OV-3 ovarian = test system: SK-OV-3 ovarian
PC-3 prostate = test system: PC-3 prostate
ACHN renal = test system: ACHN renal
T-47D breast = test system: T-47D breast
NCI-H522 lung = test system: NCI-H522 lung
NCI/ADR-RES ovarian = test system: NCI/ADR-RES ovarian
HS 578T breast = test system: HS 578T breast
SF-268 CNS = test system: SF-268 CNS

CC1(C)CC(=O)c2c(ccc(C(=O)C[C@@H](N)CO)c2N)O1
GI50 (LOX IMVI melanoma): 0.0986 µM | TGI (LOX IMVI melanoma): 1.11 µM | GI50 (U251 CNS): 0.328 µM | TGI (U251 CNS): > 100 µM | GI50 (NCI-H460 lung): 0.166 µM | TGI (NCI-H460 lung): > 100 µM | GI50 (KM12 colon): 0.297 µM | TGI (KM12 colon): > 91.7 µM | GI50 (MALME-3M melanoma): 12.5 µM | TGI (MALME-3M melanoma): > 76.9 µM | GI50 (OVCAR-5 ovarian): 22.8 µM | TGI (OVCAR-5 ovarian): > 100 µM | GI50 (NCI-H23 lung): 1.17 µM | TGI (NCI-H23 lung): > 100 µM | GI50 (DU-145 prostate): 0.849 µM | TGI (DU-145 prostate): > 93.1 µM | GI50 (SNB-19 CNS): 0.749 µM | TGI (SNB-19 CNS): > 100 µM | GI50 (SF-295 CNS): 1.29 µM | TGI (SF-295 CNS): > 54.9 µM | GI50 (HOP-92 NSCLC): 6.28 µM | TGI (HOP-92 NSCLC): > 69.3 µM | GI50 (SW-620 colon): 0.234 µM | TGI (SW-620 colon): 12.7 µM | GI50 (OVCAR-8 ovarian): 1.08 µM | TGI (OVCAR-8 ovarian): > 69.6 µM | GI50 (SF-539 CNS): 0.399 µM | TGI (SF-539 CNS): 5.22 µM | GI50 (EKVX NSCLC): 19 µM | TGI (EKVX NSCLC): > 100 µM | GI50 (OVCAR-3 ovarian): 0.431 µM | TGI (OVCAR-3 ovarian): > 38.2 µM | GI50 (MOLT-4 leukemia): 0.349 µM | TGI (MOLT-4 leukemia): > 37.4 µM | GI50 (CCRF-CEM leukemia): 0.556 µM | TGI (CCRF-CEM leukemia): > 60.2 µM | GI50 (HL-60(TB) leukemia): 4.03 µM | TGI (HL-60(TB) leukemia): > 63.7 µM | GI50 (M14 melanoma): 0.664 µM | TGI (M14 melanoma): 8.41 µM | GI50 (HCT-15 colon): 0.177 µM | TGI (HCT-15 colon): 12.2 µM | GI50 (SN12C renal): 0.788 µM | TGI (SN12C renal): > 100 µM | GI50 (UACC-257 melanoma): 3.25 µM | TGI (UACC-257 melanoma): 47.8 µM | GI50 (SK-MEL-2 melanoma): 1.04 µM | TGI (SK-MEL-2 melanoma): 9.33 µM | GI50 (SK-MEL-28 melanoma): 0.595 µM | TGI (SK-MEL-28 melanoma): 34.5 µM | GI50 (HCT-116 colon): 0.347 µM | TGI (HCT-116 colon): > 100 µM | GI50 (HT29 colon): 0.34 µM | TGI (HT29 colon): > 91.1 µM | GI50 (BT-549 breast): 1.12 µM | TGI (BT-549 breast): 11.9 µM | GI50 (UO-31 renal): 1.1 µM | TGI (UO-31 renal): > 100 µM | GI50 (MDA-MB-231 breast): 3.13 µM | TGI (MDA-MB-231 breast): > 100 µM | GI50 (SK-MEL-5 melanoma): 1.37 µM | TGI (SK-MEL-5 melanoma): > 43.9 µM | GI50 (A549 NSCLC): 1.42 µM | TGI (A549 NSCLC): > 100 µM | GI50 (NCI-H226 lung): 0.871 µM | TGI (NCI-H226 lung): > 37.4 µM | GI50 (SNB-75 CNS): 17.7 µM | TGI (SNB-75 CNS): > 100 µM | GI50 (SR leukemia): 0.15 µM | GI50 (IGROV1 ovarian): 0.958 µM | TGI (IGROV1 ovarian): > 100 µM | GI50 (TK-10 renal): 9.41 µM | TGI (TK-10 renal): 46.8 µM | GI50 (CAKI-1 renal): 0.564 µM | TGI (CAKI-1 renal): 23.7 µM | GI50 (MCF7 breast): 0.399 µM | TGI (MCF7 breast): > 52.5 µM | GI50 (RPMI-8226 leukemia): 1.56 µM | TGI (RPMI-8226 leukemia): 21.4 µM | GI50 (MDA-MB-435): 2.39 µM | TGI (MDA-MB-435): > 100 µM | GI50 (RXF 393 renal): 1.45 µM | TGI (RXF 393 renal): 7.44 µM | GI50 (HOP-62 NSCLC): 0.643 µM | TGI (HOP-62 NSCLC): > 49.1 µM | GI50 (A498 renal): 0.921 µM | TGI (A498 renal): 27.7 µM | GI50 (786-0 renal): 11.9 µM | TGI (786-0 renal): > 61.4 µM | GI50 (UACC-62 melanoma): 0.333 µM | TGI (UACC-62 melanoma): 3.61 µM | GI50 (HCC-2998 colon): 0.371 µM | TGI (HCC-2998 colon): 4.63 µM | GI50 (K-562 leukemia): 0.531 µM | TGI (K-562 leukemia): > 100 µM | GI50 (OVCAR-4 ovarian): 17.7 µM | TGI (OVCAR-4 ovarian): > 100 µM | GI50 (COLO 205 colon): 1.05 µM | TGI (COLO 205 colon): > 37.3 µM | GI50 (SK-OV-3 ovarian): 7.32 µM | TGI (SK-OV-3 ovarian): > 100 µM | GI50 (PC-3 prostate): 2.1 µM | TGI (PC-3 prostate): > 100 µM | GI50 (ACHN renal): 1.25 µM | TGI (ACHN renal): > 100 µM | GI50 (T-47D breast): 4.56 µM | TGI (T-47D breast): > 67.6 µM | GI50 (NCI-H522 lung): 0.919 µM | TGI (NCI-H522 lung): 15.3 µM | GI50 (NCI/ADR-RES ovarian): 2.55 µM | TGI (NCI/ADR-RES ovarian): > 100 µM | GI50 (HS 578T breast): 20.6 µM | TGI (HS 578T breast): > 100 µM | GI50 (SF-268 CNS): 0.667 µM | TGI (SF-268 CNS): > 89.5 µM
